For experiment [1], the system named is Chinese hamster ovary cells which express the cloned dopamine D4 receptor. As to the kind of experiment: Spontaneous G protein binding of [35S]GTPγS in membranes of CHO cells expressing the D4 receptor, after cycloleucine pretreatment. The format is cell-based. To be noted: cells treated with 0.1 mM and 1 mM cycloleucine prior to membrane preparation; versus untreated control membranes; FIG. 5A.
Description: The effect of cycloleucine, a known MAT inhibitor, on the binding of [^35 S]GTPγS was tested by treating Chinese hamster ovary cells expressing the D4 receptor with 0.1 mM and 1 mM cycloleucine prior to membrane preparation (FIG. 5A).
Chinese hamster ovary (CHO) cells stably expressing a cloned dopamine D4 receptor were grown as monolayers at 37° (95% O2 /5%CO2) in alpha minimum essential medium supplemented with 2.5% fetal calf serum, 2.5% horse serum, 100 units/ml penicillin, 100 μg/ml streptomycin, 0.25 μg/ml fungizone and 400 μg/ml G418.
Cells were washed twice with phosphate-buffered saline (137 mM NaCl, 2.6 mM KCl, 10 mM Na2 HPO4, 1.8 mM KH2 PO4), harvested with a rubber policeman, and pelleted at 4° at 200× g. The pellet was resuspended in 5 ml/dish of lysis buffer (5 mM Tris-HCL, pH 7.5, 5 mM EDTA, 5 mM EGTA, 0.1 mM phenylmethylsulfonyl fluoride) at 4° and was homogenized with a Dounce homogenizer. […]
[^35 S]GTPγS binding was measured with a modification of the assay used by Hilf and Jakobs (Eur J Pharmacol 172: 155-163 (1989)). […] The filters were washed four times (with 4 ml of 50 mM Tris.cndot.HCl, pH 7.5, containing 5 mM MgCl2 and 100 mM NaCl) and then counted in scintillation cocktail. Nonspecific binding was determined in the presence of 10 μM GTPγS and subtracted from total bound radioactivity.

In experiment [2] the test system is Chinese hamster ovary cells without the D4 receptor. Put plainly: Spontaneous [35S]GTPγS binding in CHO cells without the D4 receptor. The format is cell-based. As to conditions: FIG. 5B. The text has this:
FIGS. 5A and 5B illustrate graphic representations of the effect of cycloleucine on spontaneous G protein binding of [^35 S]GTPγS.

“Also recorded” adds a separate entry of the source.

Consider `NC1(C(=O)O)CCCC1` [cycloleucine], for which the “binding of [35S]GTPγS to the membranes (spontaneous G protein activation)” value in experiment [1] is “inhibit spontaneous G protein binding of [^35 S]GTPγS; also recorded: progressively reduced by 0.1 mM and 1 mM cycloleucine pretreatment to levels significantly lower than the untreated control membranes”. For the same compound, the “effect on spontaneous [35S]GTPγS binding” value in experiment [2] was “inability of cycloleucine to affect spontaneous [^35 S]GTPγS binding”.

The values above are taken from patent US5686255A, “Compositions and methods for diagnosing schizophrenia” (priority 1995, dated 1997).
